# Data from patent US10253002B2, “Compounds and methods of treating infections” (Neoculi Pty Ltd., priority 2013, dated 2019).
# Several values for one entry are separate records, joined by “and”; a condition that tells them apart may be missing. Equal entries are not always repeated.
# Assays:
# [1] = Precipitation of NCL812 in assay media, Examples 2 and 3; type: physicochemical
# [2] = Release from Formulation B, Franz diffusion cells; type: physicochemical; conditions: absolute ethanol receptor, 32±1° C., up to 24 hours
# Method: Franz diffusion cells were utilized to quantify the release rate of NCL 812 and NCL099 from its topical formulations. Five milliliters of absolute ethanol, which was chosen as the desired release medium, was loaded into the receptor chamber. Temperature of the receptor fluid was kept constant, at 32±1° C. using a water jacket. Acetyl cellulose membranes, with pore size of 0.45 μm (Pall Corporation) was selected and placed between donor and receptor chamber. Followed by that, a number of test samples (Formulation B) was loaded into the donor chamber. One milliliter of receptor fluid was collected at regular time intervals of 0.25, 0.50, 0.75, 1, 2, 3, 4, 5, 6, 7, 8 and 24 hours through the sampling port. One milliliter of fresh absolute ethanol was immediately returned to the receptor chamber. UV-HPLC was utilized to analyse the content of the receptor fluids attained.
# E. faecalis USA01 = experiment: Kill kinetics assay, Example 8; type: cell-based, Enterococcus faecalis
# Method: S. aureus KC01 and E. faecalis USA01, not determined to be MRSA or VRE, respectively, were grown overnight on Columbia SBA at 37° C. A few colonies of bacteria were then suspended in CAMHB (cation-adjusted Mueller Hinton broth) and adjusted to OD600 of 0.08 to 0.10. The bacterial suspension was diluted 1:10. […] The tubes were incubated at 37° C., with constant shaking. In order to determine the number of viable bacteria present at various time points, a 100 μL aliquot was removed from each tube and diluted. Then, 100 μL of each dilution were spread onto colony count agar, in duplicate, and incubated for 48 h at 37° C. After 24 h the numbers of colonies present on each plate were counted and therefore the number of viable bacteria present in the original suspension enumerated. Plates were re-checked after 48 hours.
# S. pneumoniae strain D39 = experiment: Micro-broth dilution time kill studies; type: cell-based, Streptococcus pneumoniae; conditions: D39 treated with 54 μg/mL NCL812
# [3] = test system: non-MRSA S. aureus MK01 and KC01; experiment: MBC (CLSI methodology), Example 8; type: cell-based, Staphylococcus aureus
# [4] = test system: D39 cell membrane ultra-structure; experiment: Transmission electron microscopy morphometric analysis; type: cell-based, Streptococcus pneumoniae
# Method: Morphological appearance and morphometric analysis of the cell membrane was determined using transmission electron microscopy (TEM). Bacterial suspensions and 10 mL cultures of […] were prepared as before. […] Critical time points for TEM work were determined by analysing trends in the growth curves produced from the kill kinetics studies. […] Samples were fixed using modified protocols defined by a previous study examining cell wall ultrastructure of S. pneumoniae ([…]. et al. 2005. Infect Immun 73:4653-4667). […] The samples were then embedded in fresh LR White resin and incubated at 50° C. for 48 h. Sections were cut to 1 μm using a glass knife, stained with Toluidene Blue and viewed under a light microcrope at 400× to identify the presence of stained pneumococci. At least four ultra-thin sections were then cut to 90 nm using a diamond knife and placed on matrix grids, one section per grid. […] Stained sections were then placed on grids and viewed between 25000× and 130000× on a Philips CM100 Transmission Electron Microscope. Images were obtained at 130000× magnification and analysed using analySIS [Olympus Soft Imaging Systems].
# [5] = test system: ATP release from S. aureus ATCC 29213; experiment: ATP release assay (CellTiter-Glo); type: cell-based, Staphylococcus aureus; conditions: at the MIC ([…] μg/ml); 30 min exposure
# Method: The CellTiter-Glo Luminescent Cell Viability Assay (Promega) was utilized to measure the leakage of ATP from bacteria. […] The negative control received 2% DMSO, which represented the final DMSO concentration in each assay. After a 30 min exposure to drug, cells were sedimented by centrifugation and the supernatant was analyzed for the presence of ATP. Results were expressed as ATP concentration released to the medium (μM).
# [6] = test system: protein synthesis in S. aureus ATCC 29213; experiment: Macromolecular synthesis assay: protein synthesis ([3H] leucine); type: cell-based, Staphylococcus aureus; conditions: at the MIC
# Method: Cells were grown at 35° C. overnight on Trypticase Soy agar. A colony from the plate was used to inoculate 10 ml of Mueller Hinton broth II (MHBII), and the culture was grown to early exponential growth phase (OD600==0.2 to 0.3) while incubating in a shaker at 35° C. and 200 rpm.
# When cells reached early exponential phase, 100 μL of culture was added to triplicate wells containing various concentrations of test compound or control antibiotics (5 μL) at 20× the final concentration in 100% DMSO. A 5% DMSO treated culture served as the “no drug” control for all experiments. Cells were added in MHBII at 105% to account for the volume of drug added to each reaction or in M9 minimal medium for protein synthesis reactions. Following 15 min incubation at room temperature, either [^3H] thymidine (DNA synthesis), [^3H] uridine (RNA synthesis) or [^3H] leucine (protein synthesis) was added at 0.5-1.0 μCi per reaction, depending on the experiment. Reactions were allowed to proceed at room temperature for 15-30 min and then stopped by adding 12 μL of cold 5% trichloroacetic acid (TCA) or 5% TCA/2% casamino acids (protein synthesis only). […] After washing three times with 5 ml of cold 5% TCA, the filters were rinsed two times with 5 mL 100% ethanol, allowed to dry, and then counted using a Beckman LS3801 liquid scintillation counter.
smiles,measurement,setting,value
"N=C(N/N=C/c1ccc(Cl)cc1)N/N=C/c1ccc(Cl)cc1 [NCL812, 1,3-bis[(E)-(4-chlorophenyl)methyleneamino]guanidine]",Precipitation of NCL812 observed at,"[1]; MIC plates prepared identically without inoculum, MHB II",≥ 8 µg/mL
same,precipitation observed at,"[1]; Mueller Hinton broth II, DNA and RNA synthesis assays",4 to 8 fold the MIC
same,release profile from Formulation B,[2],acceptable release profile
same,rise in bacterial numbers,"E. faecalis USA01; 32 and 64 μg/mL, until the 6 h time point",~1 log10
same,reduction in CFU/mL compared to the growth control,E. faecalis USA01; 2 h,2 log10
same,reduction in CFU/mL compared to the original bacterial numbers,E. faecalis USA01; 2 h,greater than 1 log10
same,bacterial numbers versus growth control,"E. faecalis USA01; at 24 h, all concentrations",increased to almost the same level as the growth control
same,time at which treated D39 entered a log phase of growth,S. pneumoniae strain D39,6 h
same,"NCL812 MBC test, growth on Sheep Blood Agar","[3]; S. aureus (KC01), 2 μg/ml",+
same,"NCL812 MBC test, growth on Sheep Blood Agar","[3]; S. aureus (KC01), 4 μg/ml",+ and 0
same,"NCL812 MBC test, growth on Sheep Blood Agar","[3]; S. aureus (KC01), 8 μg/ml",+ and 0
same,"NCL812 MBC test, growth on Sheep Blood Agar","[3]; S. aureus (KC01), 16 μg/ml",0
same,"NCL812 MBC test, growth on Sheep Blood Agar","[3]; S. aureus (KC01), 32 μg/ml",0
same,"NCL812 MBC test, growth on Sheep Blood Agar","[3]; S. aureus (KC01), 64 μg/ml",0
same,"NCL812 MBC test, growth on Sheep Blood Agar","[3]; S. aureus (KC01), […]",0
same,"NCL812 MBC test, growth on Sheep Blood Agar","[3]; S. aureus (MK01), 2 μg/ml",0
same,Number of Bacteria Growing after 24 hours per ml of sample,"[3]; S. aureus (MK01), 2 μg/ml",5 CFU/ml
same,"NCL812 MBC test, growth on Sheep Blood Agar","[3]; S. aureus (MK01), 4 μg/ml",0
same,"NCL812 MBC test, growth on Sheep Blood Agar","[3]; S. aureus (MK01), 8 μg/ml",0
same,"NCL812 MBC test, growth on Sheep Blood Agar","[3]; S. aureus (MK01), 16 μg/ml",0 (N) and 0
same,"NCL812 MBC test, growth on Sheep Blood Agar","[3]; S. aureus (MK01), 32 μg/ml",0 (N) and 0
same,"NCL812 MBC test, growth on Sheep Blood Agar","[3]; S. aureus (MK01), 64 μg/ml",0 (N) and 0
same,MBC test outcome,"[3]; S. aureus MK01 and KC01, no growth, or growth only at 2 μg/ml",bactericidal
same,cell membrane thickness,"[4]; D39 exposed to 16 μg/mL NCL812 for 6 h, untreated 4.35±0.24",6.43±0.29 nm
same,width of periplasmic space,"[4]; D39 treated with 16 μg/mL NCL812 for 6 h, untreated 3.91±0.14",4.54±0.096 nm
same,"Periplasmic space, Mean ± SEM","[4]; D39 treated with 16 μg/ml NCL812 for 6 h, n = 11, growth control 3.91 ± 0.14 nm","4.54 ± 0.096 nm,"
same,"Cell membrane, Mean ± SEM","[4]; D39 treated with 16 μg/ml NCL812 for 6 h, n = 13, growth control 4.35 ± 0.24 nm","6.43 ± 0.29 nm,"
same,maximal ATP release,[5],0.33 µM
same,inhibition of protein synthesis,[6],up to 97%
